The text below walks through data of paper PMC9664868, “Dephospho-Coenzyme A Kinase Is an Exploitable Drug Target against Plasmodium falciparum: Identification of Selective Inhibitors by High-Throughput Screening of a Large Chemical Compound Library” (Antimicrobial Agents and Chemotherapy, 2022).

Experiment [1] concerns the target T1, PfDPCK (Plasmodium falciparum, UniProt Q8IL34). Kind of experiment: PfDPCK inhibition, enzyme-coupled fluorescence ADP detection assay (HTS and IC50 determination). The format is biochemical. The conditions noted are these: Table 2, PfDPCK inhibitor scaffolds Gr4, Gr5, Gr8; read-out: IC50.
Experiment [2] has as its target T1, PfDPCK. The experiment can be described thus: Mechanism of PfDPCK inhibition by Lineweaver-Burk plot. In kind it is biochemical. As to the method: In order to understand the mechanism of PfDPCK inhibition of the identified compounds, we independently selected compounds from 359 PfDPCK-specific inhibitor candidates (showing >40% inhibition at 10 μM against PfDPCK), based on the more stringent criteria of >80% inhibition at 10 μM against PfDPCK and <10% inhibition against HsCOASY, to yield 30 hits. The hits were prioritized using a multiparameter optimization (MPO) scoring model, developed by MMV (https://www.optibrium.com/downloads/scoring-profiles/mmv-antimalarial-scoring-profile/) based on calculated physicochemical properties, including molecular weight, logP, hydrogen bond donors and acceptors, rotatable bonds, and structural alerts ([20], [21]). We finally chose six representative compounds (A-15, A-33, and A-69, shown in Table S1, and other three compounds; A-126, A-127, and A-128) by manual inspection with “chemist eye” for chemical attractiveness (druglikeness). […] Furthermore, two compounds, A-33 and A-69, are considered to be pan-assay interference compounds (PAINS) (phenolic Mannich base) ([22]). We consequently focused on two commercially available compounds (A-15 and A-127) (Fig. 6A) and investigated their mechanism of inhibition. We differentiated the type of inhibition by Lineweaver-Burk plot with various concentrations of one substrate (dephospho-CoA or ATP), while the other substrate was given in saturating concentrations in kinetic studies (Fig. 5).
FIG 5 Lineweaver-Burk plots showing inhibition of two compounds, compound A-15 (A, B) and compound A-127 (C, D) on the PfDPCK activity. The enzymatic activities were determined with various concentrations of dephospho-CoA and 200 μM ATP (A, C) or various concentrations of ATP and 200 μM dephospho-CoA (B, D) in the presence of a range of concentrations of inhibitors. Data are shown in means ± SEMs of triplicate.
PfDPCK and HsCOASY activity was measured by quantifying ADP produced in the reaction by a coupling assay using the ADP Hunter Plus assay kit (DiscoverX, USA) according to the manufacturer's instructions. Briefly, enzymatic reactions were carried out in a 20-μL mixture of assay buffer containing 15 mM HEPES, 20 mM NaCl, 1 mM EGTA, 0.02% Tween 20, 10 mM MgCl2, 0.1% bovine gamma globulin, 50 ng of recombinant PfDPCK or HsCOASY, 4 to 256 μM dephospho-CoA, and 5 to 300 μM ATP on a black microplate. All reactions were performed for 2 h, reagents A and B were added, and they were then reincubated for 60 min at 30°C. After reactions were terminated by addition of ADP Hunter Stop solution, the fluorescent signal was measured using SpectraMax Paradigm (Molecular Devices, CA, USA) at excitation and emission wavelengths of 530 and 590 nm, respectively. The kinetic parameters were calculated using the nonlinear regression function using the single saturating concentrations of the substrates by the GraphPad Prism software (GraphPad Software Inc., San Diego, CA). The experiments were repeated three times in triplicate using proteins purified from independent cultures. Kinetic values of enzymes are presented as the means ± standard errors (SEs).

A word on the IC50: it is the concentration at which inhibition is half-maximal. In general, Ki refers to a dissociation constant, usually derived from enzyme kinetics or from competition with a known ligand.

“Also recorded” adds a separate entry of the source.

T1 sequence (Q8IL34 entry or part of it): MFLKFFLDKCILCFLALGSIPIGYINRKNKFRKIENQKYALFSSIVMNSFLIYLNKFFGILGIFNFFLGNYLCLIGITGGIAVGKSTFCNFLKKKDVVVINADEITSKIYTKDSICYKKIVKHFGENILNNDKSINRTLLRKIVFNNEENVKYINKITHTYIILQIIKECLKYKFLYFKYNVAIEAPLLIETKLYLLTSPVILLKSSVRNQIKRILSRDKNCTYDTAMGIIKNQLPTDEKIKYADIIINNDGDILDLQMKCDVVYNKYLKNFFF

`CC(C)(C)c1cc(C(=O)Cn2c(NCCO)nc3ccccc32)cc(C(C)(C)C)c1O` [Compound A-15]: the IC50 in experiment [1] stood at 1930 ± 40 nM. Besides, the Ki in experiment [2] (in respect of ATP, 200 μM dephospho-CoA) was determined as 10400 nM; in experiment [2] (in respect of dephospho-CoA, 200 μM ATP) it was 470 nM. Moreover, the type of inhibition entry in experiment [2] (in respect of dephospho-CoA and ATP, Lineweaver-Burk plot) is reported as “competitively inhibits; also recorded: competitive inhibition”.
